Experiments:
Assay type in all cases: cell-based, human
HER2 mRNA = experiment: Northern blot of HER2 transcript levels; conditions: SKBR3 cells, TSA 1 μM, 6 h
Protocol: Previous studies have shown that pan-inhibitors of class I and II histone deacetylases, like TSA, can rapidly destabilize a number of oncogenic transcripts including HER2 in a cycloheximide-dependent manner (FIG. 9). […] Thus, SKBR3 cells were treated with TSA to evaluate polysome protein acetylation and determine if, similar to RPL24 depletion, histone deacetylase inhibition can affect ribosome assembly dynamics. To detect early (2 h) ribosome or polysome acetylation following histone deacetylase inhibition treatment (1 μM TSA), SKBR3 polysomes were isolated using a discontinuous sucrose gradient as previously described. […] Mass spectrometry studies indicate that 15 ribosomal proteins, 11 large subunit proteins (RPL24 included) and 4 small subunit proteins, underwent at least a two-fold induction in acetylation following 2 h or 6 h TSA treatment (1 μM) (FIG. 4b, FIG. 10a-q).
Cells are harvested and RNA is extracted using Trizol (Life Technologies) per manufacturer's protocol. Northern blots are performed as previously described. Briefly, RNA is then electrophoresed into 1% agarose-formaldehyde gels and transferred onto PVDF membranes. Membranes are then hybridized with ^32P-labelled cDNA probes for HER2 or GAPDH, washed, and visualized by autoradiography.
SKBR3 cells were treated with TSA (1 μM, 6 h) and/or cycloheximide (CX, 50 μg/ml, 6 h) or with the respective vehicle controls. […]

ribosomal proteins = experiment: Mass spectrometry of acetylated ribosomal proteins in polysome pellets; conditions: SKBR3 cells, TSA 1 μM, 2 h or 6 h
Protocol: Previous studies have shown that pan-inhibitors of class I and II histone deacetylases, like TSA, can rapidly destabilize a number of oncogenic transcripts including HER2 in a cycloheximide-dependent manner (FIG. 9). […] Thus, SKBR3 cells were treated with TSA to evaluate polysome protein acetylation and determine if, similar to RPL24 depletion, histone deacetylase inhibition can affect ribosome assembly dynamics. To detect early (2 h) ribosome or polysome acetylation following histone deacetylase inhibition treatment (1 μM TSA), SKBR3 polysomes were isolated using a discontinuous sucrose gradient as previously described. […]
To prepare polysome samples for mass spectrometry, cells are treated with a histone deacetylase inhibitor and polysome pellets are prepared using a discontinuous sucrose gradient as described above. Protein concentration is determined using the Pierce BCA Protein Assay Kit (Thermo Scientific) and equal amount of protein are trypsin digested. […]
Three biological replicates of polysome or 60S samples are then analyzed by LC-MS/MS using a quadrupole time-of-flight (QqTOF) TripleTOF 5600 mass spectrometer (AB SCIEX, Dublin, Calif.) coupled to an Eksigent (Dublin, Calif.) nanoLC Ultra, 2D plus. […] Quantitative data analysis of acetyl-lysine peptides is performed by integration of selected molecular ion intensities using Skyline MS1 Filtering as previously described. […]

tubulin = experiment: Western blot for tubulin acetylation in SKBR3 cells; conditions: western blot (FIG. 4c,d)
Text: Like TSA, the HDAC6 (class IIb)-selective inhibitors, Tubacin and Compound 101, as well as HDAC6 siRNA, all induce tubulin acetylation as expected as well as ribosomal protein acetylation, including the band that co-migrates with RPL24 (FIG. 4c,d, indicated by arrows). […] Thus, the tubulin acetylating effects of pan-histone deacetylase inhibition, known to be mediated by inhibition or knockdown of HDAC6, correspond to the observed ribosome and RPL24 acetylation responses induced by TSA.
Cells are lysed in RIPA buffer (10 mM Tris-HCL (pH 8.0), 1 mM EDTA, 0.5 mM EGTA, 1% triton X-100, 0.1% sodium deoxycholate, 0.1% SDS, 140 mM NaCl, 20 mM NaF, Complete EDTA-free protease inhibitor tablets (Roche Diagnostics Corp., Basel, Switzerland) and the phosphatase inhibitor cocktail PhosSTOP (Roche)), the latter two as indicated by the manufacturer's protocol. Equal amounts of protein are diluted in 2× sample buffer. Immunoblots on PVDF (Polyvinyldene Fluoride) membranes are blocked with nonfat milk in tris-buffered saline with 0.05% tween-20 (TBST). The following antibodies are incubated with membranes in 5% nonfat milk in TBST: RPL24 (Proteintech, Chicago, Ill.), Cyclin D1, Rack1, RPL4 (Santa Cruz Biotechnology, Santa Cruz, Calif.), NBS1, GAPDH (EMD Millipore Corporation, Chicago, Ill.), Survivin, β-tubulin, acetyl-lysine, eIF6, acetyl-H2B, H2B, (Cell Signaling Technology, Boston, Mass.), acetyl-tubulin, tubulin (Sigma Aldrich (St. Louis, Mo.))
FIG. 4: Ribosomal protein acetylation is induced by histone deacetylase inhibition. (a-c) SKBR3 cells were treated with the indicated drugs for the indicated period of time. (d) SKBR3 cells were transfected with the indicated siRNAs and allowed to incubate for 72 hours. (a, c, d). The indicated western blots were performed in ribopellets, total cytoplasmic lysates, or nuclear extracts. (b) Mass spectrometry was performed on ribopellets as described in materials and methods and in FIG. 6. The fold change in acetylated peptide to total peptide case by TSA treatment is plotted. Only proteins that underwent at least a two-fold induction upon TSA treatment are shown. Error bars represent the standard error of the mean for three biological replicates.

CC(/C=C/C(=O)NO)=C\[C@@H](C)C(=O)c1ccc(N(C)C)cc1 [TSA, trichostatin-A]
HER2 mRNA decay (HER2 mRNA): TSA-induced HER2 mRNA decay
number of ribosomal proteins with at least a two-fold induction in acetylation (ribosomal proteins): 15
tubulin acetylation (tubulin): induce

From patent publication US20150359794A1, “IMPAIRMENT OF THE LARGE RIBOSOMAL SUBUNIT PROTEIN RPL24 BY DEPLETION OR ACETYLATION” (Buck Institute for Research on Aging, priority 2014, published 2015)
